Assay results from paper PMC8892231 (EMBO Reports, 2021).

Legend:
qC10ORF99 promoter = assay: Luciferase reporter assay, Japanese quail C10ORF99 promoter in HEK293 cells; assay type: cell-based; details: promoter-pGL4.14 (300 ng), sodium propionate or sodium acetate in serum-free medium for 12 h, normalized to β-galactosidase, vs parental PGL4.14 plasmid, n = 3
cGPR15‐A283L = assay: Intracellular calcium assay, reverse mutant cGPR15‐A283L; assay type: cell-based, Latimeria chalumnae; details: CHO cells, Fluo-4 calcium assay; peptide 10 nM
cGPR15‐P246K = assay: Intracellular calcium assay, reverse mutant cGPR15‐P246K; assay type: cell-based, Lepisosteus oculatus/Scleropages formosus; details: CHO cells, Fluo-4 calcium assay; peptide 10 nM

| Molecule | luciferase activity of the promoter construct (qC10ORF99 promoter) | activation of the mutant receptor based on Ca2+ measurements (cGPR15‐A283L) | activation of the mutant receptor based on Ca2+ measurements (cGPR15‐P246K) |
| --- | --- | --- | --- |
| CC(=O)O [acetate] | significantly increased | – | – |
| CCC(=O)O [propionate] | significantly increased | – | – |
| AAPSPLFVPGPLPQL [qC10ORF99] | – | activated | activated |
